Test [1] is described as follows: PIP-binding membrane assay (Membrane Lipid Strips). Conditions: 400 ng peptide. Further details: key: —: −−− no binding; +++ strong binding. Here is the method: N-terminally biotinylated versions of the peptides listed below were used in various assays listed in the examples. For the two types of phosphatidylinositon phosphate (PIP)-binding assays, imm1-imm6 peptides were used.
In the PIP-binding membrane assay, 400 ng of each peptide was bound to Membrane Lipid Strips (Catalog # P-6002, Echelon Biosciences, Salt Lake City, UT) and developed according to the manufacturer's instructions. Binding to PIPs was as follows (−−− no binding; +++ strong binding): […]

Test [2] in a line: Plate assay: biotinylated peptide on streptavidin plates, FITC-labelled PIP2. Type of test: binding. Conditions: 400 ng peptide per well; for FITC-PIP2 fluorescence, Background Control: EDTA background; for FITC-PIP2 fluorescence, Ferric Iron: with ferric iron; for FITC-PIP2 fluorescence, Zinc: with zinc. Here is the method: In the plate assay, biotinylated peptides imm3 and imm5 were bound to 96-well, streptavidin-coated plates (BioLegend corporaton, San Diego, CA) at 400 ng per well in PBS buffer at room temperature for 60 mins. Plates were washed in PBS and developed with FITC-labelled PIP2 (purchased from Cayman Chemical Co, Ann Arbor, MI). Fluorescence was counted in a laboratory fluorescence spectrophotometer. The results were as follows (EDTA background set to =100; **p<0.01 vs background control): […]

Test [3] concerns THP1-Dual monocyte reporter cell line. Description: THP1-Dual myeloid cell differentiation assay (PMA protocol). In kind it is cell-based, human. Conditions: PMA 24 h, then peptide 0.33 uM or 0.66 uM 24 h; for CD169+ (AU): relative to immX3AVD = 100. Here is the method: Mammalian cell differentiation assays employed the THP1-Dual monocyte reporter cell line (Invivogen Inc, San Diego, CA) seeded at 2×10e5 cells per well in 96-well plates and cultured at 37 degrees C. in RPMI-1640 growth medium plus 10% fetal bovine serum and 1% penicillin/streptomycin. Cells were subsequently treated for 24 hours with 100 ng/ml Phorbol 12-myristate 13-acetate (PMA protocol; Cayman Chemical Company, Ann Arbor, MI). Peptide (0.33 uM or 0.66 uM, as indicated) was then added, and incubation continued for an additional 24 hours. Culture supernatants were assayed for CCL22. Plates with adherent cells were washed with PBS and assayed for immunoreactivity of surface markers such as CD169, Clec9a or Clec12a using fuorescent tag- or biotin-labeled anti-human antibodies purchased from Miltenyi Biotec (Auburn, CA) and the secondary detection reagent recommended by the manufacturer.

The nature of test [4]: Plate binding of FITC-labelled heparin to immobilised biotinylated peptides. Conditions: 400 ng peptide/well, 1 ug FITC-heparin, PBS; normalized to immX3 peptide binding = 100. The method, then:
(§1) Effects of pH, PIP2 and size classes: Streptavidin-coated 96-well plates (G-Biosciences, St. Louis, MO) were pre-loaded with biotinylated peptides [see Example 1] at 400 ng/well, at room temperature for 60 minutes. The plate was washed with PBS buffer and then 1 ug FITC-labelled heparin or hyaluronic acid (FITC-HMW-HA) in 100 uL PBS buffer was added per well (all tests done in quadruplicate). Incubation proceeded for 90 minutes at room temperature, followed by two PBS washes. The plate was read in a standard laboratory fluorometer (488/525 nm exitation/[…]) and the counts normalized for immX3 peptide binding=100. Values statistically above background are shown in bold font. **p<0.05 versus immX3AVD.

Test [5] in a line: Plate binding of FITC-labelled hyaluronic acid to immobilised biotinylated peptides. Conditions: 400 ng peptide/well, 1 ug FITC-HMW-HA, PBS; normalized to immX3 peptide binding = 100. The method, then: as §1
Test [6] deals with HFF-1 human fibroblast cell line. Description: Collagen stimulating activity in HFF-1 dermal fibroblasts (Collagen-1 ELISA). Conditions: peptide 2 uM, 72 hour; control (buffer) set to 100. In kind it is cell-based. The method, then:
Immodulin peptides have potential untility in the field of cosmetics. HFF-1 human fibroblast cell line was obtained from the American Type Culture Collection (ATCC). Cells were grown in a T-75 flask in DMEM Medium containing 10% fetal bovine serum and penicillin-streptomycin at 37° C. in a humidified, 5% CO2 incubator. Cells ([…], 2,000 cells/well) were plated in a 96-well plate and incubated overnight at 37° C. in a humidified, 5% CO2 incubator. Next day, […] of compounds were added (quadruplicate wells). After 72 hour incubation with the compound, supernatants were collected for Collagen-1 ELISA assay and cell viability was measured in a luminometer after the addition of […] CellTiterGlo reagent (Promega Inc, Madison, WI) as recommended by the manufacturer. Collagen stimulating activity of immodulin peptides in HFF-1 dermal fibroblasts: Peptides were added to cells at 2 uM. Collagen-1A1 (COL1) immunoreactivity was measured in the supernatants of cultured cells by ELISA using a rabbit monoclonal anti-COL1 primary antibody (Abcam, Cambridge, MA). Control (buffer) value of immunoreactivity was set to 100.
Background: ELISA stands for enzyme-linked immunosorbent assay.

SMILES strings stand for the structures. Marks after values point to notes of the source that are not given here. Peptide text beside a SMILES is read from it.

In the case of `N=C(N)NCCC[C@H](NC(=O)CNC(=O)[C@H](CCCCN)NC(=O)[C@H](CO)NC(=O)[C@@H]1CCCN1C(=O)[C@H](CCCNC(=N)N)NC(=O)[C@H](CS)NC(=O)[C@H](CCC(N)=O)NC(=O)[C@H](CCCCN)NC(=O)[C@H](CCCCN)NC(=O)[C@H](CCCCN)NC(=O)[C@H](Cc1ccc(O)cc1)NC(=O)[C@H](Cc1ccccc1)NC(=O)CNC(=O)[C@H](CCCCN)NC(=O)[C@@H](N)CCCCN)C(=O)N[C@@H](CCCCN)C(=O)N[C@@H](CCCNC(=N)N)C(=O)NCC(=O)N[C@@H](Cc1ccccc1)C(=O)N[C@@H](CS)C(=O)N[C@@H](Cc1c[nH]c2ccccc12)C(=O)O` [imm3] (H-KKGFYKKKQCRPSKGRKRGFCW-OH), in test [1], the “Binding to Phosphatidylinositol” value was “—”, the “Binding to PtdIns(4)P [PIP1]” value is on record as “—” and the “Binding to PtdIns(4,5)P [PIP2]” value was “+++”. Besides, in test [2], the “FITC-PIP2 fluorescence, Background Control” value stood at 1.0 ± 0.8; the “FITC-PIP2 fluorescence, Ferric Iron” value was 26.2 ± 5.7**; the “FITC-PIP2 fluorescence, Zinc” value was 4.7 ± 1.3**. Also, the “CD169+ (AU)” value in test [3] was determined as 27.8 ± 3.0 AU. This compound also came in with a CCL22 in test [3] (culture supernatant) of 55.3 ± 16.1 pg/mL. Also, in test [4], the “Heparin binding (fluorescence counts)” value is recorded as 104.2 ± 22.0. In addition, the “Hyaluronate binding (fluorescence counts)” value (from here on “Hyaluronate binding”) in test [5] is 57.2 ± 5.7**. Moreover, the “COL1 (Collagen-1A1 immunoreactivity in supernatant)” value (“COL1” below) in test [6] is given as 101.
On to `CC(C)C[C@H](NC(=O)[C@H](C)NC(=O)[C@@H]1CCCN1C(=O)[C@H](Cc1c[nH]cn1)NC(=O)[C@H](CS)NC(=O)[C@H](CCC(N)=O)NC(=O)[C@H](CCCCN)NC(=O)[C@@H]1CCCN1C(=O)[C@H](Cc1c[nH]cn1)NC(=O)[C@H](Cc1ccccc1)NC(=O)[C@H](CC(N)=O)NC(=O)CNC(=O)[C@H](CC(N)=O)NC(=O)[C@@H](N)CCCNC(=N)N)C(=O)N[C@@H](CC(=O)O)C(=O)NCC(=O)N[C@@H](CCC(N)=O)C(=O)N[C@@H](CCCNC(=N)N)C(=O)NCC(=O)N[C@@H](CCCCN)C(=O)N[C@@H](CS)C(=O)N[C@@H](Cc1c[nH]c2ccccc12)C(=O)O` [imm4] (H-RNGNFHPKQCHPALDGQRGKCW-OH), for which, in test [1], the “Binding to Phosphatidylinositol” value is listed as “—”, the “Binding to PtdIns(3,4,5)P [PIP3]” value is “—”, the “Binding to PtdIns(4)P [PIP1]” value is “—” and the “Binding to PtdIns(4,5)P [PIP2]” value is recorded as “—”. Besides, in test [3], the “CD169+ (AU)” value was 3.8 ± 1.1 AU. Also, in test [4], the “Heparin binding (fluorescence counts)” value stood at 6.8 ± 24.1. Besides, the “Hyaluronate binding” value in test [5] is 14.6 ± 22.6. In test [6], the “COL1” value is reported as 105.
For the compound `CC[C@H](C)[C@H](NC(=O)CNC(=O)[C@H](CCCNC(=N)N)NC(=O)[C@H](CCCCN)NC(=O)[C@H](CCCNC(=N)N)NC(=O)CNC(=O)[C@H](CCCNC(=N)N)NC(=O)[C@H](CO)NC(=O)[C@@H]1CCCN1C(=O)[C@H](CCCCN)NC(=O)[C@H](CS)NC(=O)[C@H](CCC(N)=O)NC(=O)[C@H](CCCCN)NC(=O)[C@H](CCCNC(=N)N)NC(=O)[C@H](CCCCN)NC(=O)[C@H](Cc1ccc(O)cc1)NC(=O)[C@H](Cc1ccccc1)NC(=O)CNC(=O)[C@H](CCCCN)NC(=O)[C@@H](N)CCCNC(=N)N)C(=O)N[C@@H](CS)C(=O)N[C@@H](Cc1c[nH]c2ccccc12)C(=O)O` [imm5] (H-RKGFYKRKQCKPSRGRKRGICW-OH), in test [1], the “Binding to Phosphatidylinositol” value is given as “—” and the “Binding to PtdIns(4,5)P [PIP2]” value is recorded as “+++”. For the same compound, in test [2], the “FITC-PIP2 fluorescence, Background Control” value stood at 1.8 ± 0.5; the “FITC-PIP2 fluorescence, Ferric Iron” value is recorded as 23.4 ± 3.5**; the “FITC-PIP2 fluorescence, Zinc” value was 5.0 ± 1.2**. Moreover, the “CD169+ (AU)” value in test [3] is listed as 36.5 ± 3.0 AU. In addition, the “Heparin binding (fluorescence counts)” value in test [4] stood at 95.1 ± 25.7. Also, in test [5], the “Hyaluronate binding” value is listed as 60.0 ± 8.6**. The “COL1” value in test [6] was 93.
